Test results as given in ChEMBL document CHEMBL5518176, “Identification of novel aminopyrimidine derivatives for the treatment of mutant NSCLC” (Eur J Med Chem, 2024).
Activity calls are given as the source filed them. The calls are words filed in the database; no cut-off is given here.

Tests used:
BaF3 [1] = test: Antiproliferative activity against mouse BaF3 cells harboring EGFR L858R/T790M/C797S triple mutant assessed as inhibition of cell growth incubated for 72 hrs by CellTiter-Glo luminescent assay; format: functional, cell-based; settings: BaF3, 72 h
BaF3 [2] = test: Antiproliferative activity against mouse BaF3 cells harboring EGFR Del19/T790M/C797S triple mutant assessed as inhibition of cell growth incubated for 72 hrs by CellTiter-Glo luminescent assay; format: functional, cell-based; settings: BaF3, 72 h
NCI-H1975 [3] = test: Antiproliferative activity against human NCI-H1975 cells harboring EGFR L858R/T790M/C797S triple mutant assessed as inhibition of cell growth incubated for 72 hrs by CellTiter-Glo luminescent assay; format: functional, cell-based; settings: NCI-H1975, 72 h
NCI-H1975 [4] = test: Antiproliferative activity against human NCI-H1975 cells harboring EGFR L858R/T790M double mutant assessed as inhibition of cell growth incubated for 72 hrs by MTT assay; format: functional, cell-based; settings: NCI-H1975, 72 h
A549 = test: Antiproliferative activity against human A549 cells assessed as inhibition of cell growth incubated for 72 hrs by MTT assay; format: functional, cell-based; settings: A549, 72 h
BaF3 [5] = test: Antiproliferative activity against mouse BaF3 cells harboring wildtype EGFR assessed as inhibition of cell growth incubated for 72 hrs by CellTiter-Glo luminescent assay; format: functional, cell-based; settings: BaF3, 72 h
[6] = Antiproliferative activity against human BEAS-2B cells assessed as inhibition of cell growth; format: toxicity, cell-based
NCI-H1975 [7] = test: Induction of apoptosis in human NCI-H1975 cells harboring EGFR L858R/T790M/C797S triple mutant assessed as viable cells at 0.4 uM incubated for 48 hrs by Annexin V-FITC/PI staining based flow cytometric analysis (reference value: 98.3 %); format: functional; settings: read-out: Activity
NCI-H1975 [8] = test: Induction of apoptosis in human NCI-H1975 cells harboring EGFR L858R/T790M/C797S triple mutant assessed as early apoptotic cells at 0.4 uM incubated for 48 hrs by Annexin V-FITC/PI staining based flow cytometric analysis (reference value: 0.39 %); format: functional
NCI-H1975 [9] = test: Induction of apoptosis in human NCI-H1975 cells harboring EGFR L858R/T790M/C797S triple mutant assessed as late apoptotic cells at 0.4 uM incubated for 48 hrs by Annexin V-FITC/PI staining based flow cytometric analysis (reference value: 0.89 %); format: functional
NCI-H1975 [10] = test: Induction of apoptosis in human NCI-H1975 cells harboring EGFR L858R/T790M/C797S triple mutant assessed as necrotic cells at 0.4 uM incubated for 48 hrs by Annexin V-FITC/PI staining based flow cytometric analysis (reference value: 0.42 %); format: functional
NCI-H1975 [11] = test: Induction of apoptosis in human NCI-H1975 cells harboring EGFR L858R/T790M/C797S triple mutant assessed as viable cells at 0.8 uM incubated for 48 hrs by Annexin V-FITC/PI staining based flow cytometric analysis (reference value: 98.3 %); format: functional; settings: read-out: Activity
NCI-H1975 [12] = test: Induction of apoptosis in human NCI-H1975 cells harboring EGFR L858R/T790M/C797S triple mutant assessed as early apoptotic cells at 0.8 uM incubated for 48 hrs by Annexin V-FITC/PI staining based flow cytometric analysis (reference value: 0.39 %); format: functional
NCI-H1975 [13] = test: Induction of apoptosis in human NCI-H1975 cells harboring EGFR L858R/T790M/C797S triple mutant assessed as late apoptotic cells at 0.8 uM incubated for 48 hrs by Annexin V-FITC/PI staining based flow cytometric analysis (reference value: 0.89 %); format: functional
NCI-H1975 [14] = test: Induction of apoptosis in human NCI-H1975 cells harboring EGFR L858R/T790M/C797S triple mutant assessed as necrotic cells at 0.8 uM incubated for 48 hrs by Annexin V-FITC/PI staining based flow cytometric analysis (reference value: 0.42 %); format: functional
NCI-H1975 [15] = test: Induction of apoptosis in human NCI-H1975 cells harboring EGFR L858R/T790M/C797S triple mutant assessed as viable cells at 1.5 uM incubated for 48 hrs by Annexin V-FITC/PI staining based flow cytometric analysis (reference value: 98.3 %); format: functional; settings: read-out: Activity
NCI-H1975 [16] = test: Induction of apoptosis in human NCI-H1975 cells harboring EGFR L858R/T790M/C797S triple mutant assessed as early apoptotic cells at 1.5 uM incubated for 48 hrs by Annexin V-FITC/PI staining based flow cytometric analysis (reference value: 0.39 %); format: functional
NCI-H1975 [17] = test: Induction of apoptosis in human NCI-H1975 cells harboring EGFR L858R/T790M/C797S triple mutant assessed as late apoptotic cells at 1.5 uM incubated for 48 hrs by Annexin V-FITC/PI staining based flow cytometric analysis (reference value: 0.89 %); format: functional
NCI-H1975 [18] = test: Induction of apoptosis in human NCI-H1975 cells harboring EGFR L858R/T790M/C797S triple mutant assessed as necrotic cells at 1.5 uM incubated for 48 hrs by Annexin V-FITC/PI staining based flow cytometric analysis (reference value: 0.42 %); format: functional
NCI-H1975 [19] = test: Induction of cell cycle arrest in human NCI-H1975 cells harboring EGFR L858R/T790M/C797S triple mutant at 0.4 to 1.5 uM incubated for 48 hrs by flow cytometric analysis; format: functional, cell-based; settings: dose 0.4-1.5 µM
NCI-H1975 [20] = test: Antiproliferative activity against human NCI-H1975 cells harboring EGFR L858R/T790M/C797S triple mutant assessed as inhibition of cell growth incubated for 72 hrs in presence of osimertinib by CellTiter-Glo luminescent assay; format: functional, cell-based; settings: NCI-H1975, 72 h

SMILES | IC50 (BaF3 [1]) | IC50 (BaF3 [2]) | IC50 (NCI-H1975 [3]) | IC50 (NCI-H1975 [4]) | IC50 (A549) | other results
Nc1cc(Nc2ccc(NC(=O)C(c3ccccc3)N3Cc4cc(-c5ccc(N6CCNCC6)cc5)ccc4C3=O)cc2)ncn1 (configuration not stated) | 3960 nM | 1520 nM | > 10000 nM | > 20000 nM | > 20000 nM | –
CN1CCN(c2ccc(-c3ccc4c(c3)CN(C(C(=O)Nc3ccc(Nc5ccnc(N)n5)cc3)c3ccccc3)C4=O)cc2)CC1 (racemic) | 690 nM | 620 nM | 1650 nM | – | 12200 nM | IC50 (BaF3 [5]): 1500 nM
CN1CCN(c2ccc(-c3ccc4c(c3)CN([C@@H](C(=O)Nc3ccc(Nc5ccnc(N)n5)cc3)c3ccccc3)C4=O)cc2)CC1 | 420 nM | 410 nM | 820 nM | 2950 nM | 5140 nM | IC50 (BaF3 [5]): 410 nM; IC50 [6]: 5120 nM; viability at 0.4 µM (NCI-H1975 [7]): 97.3%; Activity (NCI-H1975 [8]): 0.59%; Activity (NCI-H1975 [9]): 1.64%; Activity (NCI-H1975 [10]): 0.51%; viability at 0.8 µM (NCI-H1975 [11]): 86.7%; Activity (NCI-H1975 [12]): 1.45%; Activity (NCI-H1975 [13]): 11.16%; Activity (NCI-H1975 [14]): 0.69%; viability at 1.5 µM (NCI-H1975 [15]): 85.3%; Activity (NCI-H1975 [16]): 1.83%; Activity (NCI-H1975 [17]): 12.15%; Activity (NCI-H1975 [18]): 0.73%; Activity (NCI-H1975 [19]): inactive
Nc1nccc(Nc2ccc(NC(=O)C(c3ccccc3)N3Cc4cc(-c5ccc(N6CCCCC6)cc5)ccc4C3=O)cc2)n1 (racemic) | 2080 nM | 2580 nM | – | > 20000 nM | > 20000 nM | –
Nc1nccc(Nc2ccc(NC(=O)C(c3ccccc3)N3Cc4cc(-c5ccc(N6CCNCC6)cc5)ccc4C3=O)c(F)c2)n1 (configuration not stated) | 1430 nM | 720 nM | 1430 nM | 2440 nM | 1780 nM | –
Nc1nccc(Nc2ccc(NC(=O)C(c3ccccc3)N3Cc4ccccc4C3=O)cc2)n1 (configuration not stated) | > 10000 nM | > 10000 nM | > 10000 nM | > 20000 nM | > 20000 nM | –
C=CC(=O)Nc1cc(Nc2nccc(-c3cn(C)c4ccccc34)n2)c(OC)cc1N(C)CCN(C)C [OSIMERTINIB] | 1120 nM | 750 nM | […] | […] | […] | IC50 (BaF3 [5]): 9 nM
COc1nccc(Nc2ccc(NC(=O)C(c3ccccc3)N3Cc4cc(-c5ccc(N6CCNCC6)cc5)ccc4C3=O)cc2)n1 (configuration not stated) | 480 nM | – | 2650 nM | 3600 nM | 4880 nM | –
CCN(CC)c1ccc(-c2ccc3c(c2)CN(C(C(=O)Nc2ccc(Nc4ccnc(N)n4)cc2)c2ccccc2)C3=O)cc1 (racemic) | 1190 nM | 1190 nM | – | 11600 nM | 15700 nM | –
Nc1nccc(Nc2ccc(NC(=O)C(c3ccccc3)N3Cc4cc(-c5ccc(N6CCNCC6)cc5)ccc4C3=O)c(Cl)c2)n1 (configuration not stated) | 1240 nM | 860 nM | 2320 nM | 4400 nM | 3960 nM | –
Cc1nccc(Nc2ccc(NC(=O)C(c3ccccc3)N3Cc4cc(-c5ccc(N6CCNCC6)cc5)ccc4C3=O)cc2)n1 (configuration not stated) | 930 nM | – | 2690 nM | 4750 nM | 3970 nM | –
O=C(Nc1nccs1)[C@@H](c1cc(F)ccc1O)N1Cc2ccc(-c3ccc(N4CCNCC4)cc3)cc2C1=O | – | – | 3660 nM | – | – | IC50 (NCI-H1975 [20]): 1250 nM
Nc1nccc(Nc2ccc(NC(=O)C(c3ccccc3)N3Cc4cc(-c5ccc(N6CCOCC6)cc5)ccc4C3=O)cc2)n1 (racemic) | 1960 nM | 1960 nM | – | > 20000 nM | > 20000 nM | –
Nc1nccc(Nc2cccc(NC(=O)C(c3ccccc3)N3Cc4cc(-c5ccc(N6CCNCC6)cc5)ccc4C3=O)c2)n1 (configuration not stated) | 1460 nM | 890 nM | 4160 nM | 3200 nM | 2210 nM | –
CN1CCN(c2ccc(-c3ccc4c(c3)CN([C@H](C(=O)Nc3ccc(Nc5ccnc(N)n5)cc3)c3ccccc3)C4=O)cc2)CC1 | 720 nM | 750 nM | 1640 nM | 2820 nM | 7180 nM | IC50 (BaF3 [5]): 450 nM
Nc1nccc(Nc2ccc(NC(=O)C(c3ccccc3)N3Cc4cc(-c5ccc(N6CCNCC6)cc5)ccc4C3=O)cc2Cl)n1 (configuration not stated) | 1440 nM | 860 nM | 1550 nM | 3320 nM | 4200 nM | –
Nc1nccc(Nc2ccc(NC(=O)C(c3ccccc3)N3Cc4cc(-c5ccc(N6CCNCC6)cc5)ccc4C3=O)cc2F)n1 (configuration not stated) | 1420 nM | 1720 nM | 1530 nM | 7800 nM | 4520 nM | –
O=C(Nc1ccc(Nc2ccncc2)cc1)C(c1ccccc1)N1Cc2cc(-c3ccc(N4CCNCC4)cc3)ccc2C1=O (configuration not stated) | 1040 nM | – | 2700 nM | 3820 nM | 5200 nM | –
O=C(Nc1ccc(Nc2ccncn2)cc1)C(c1ccccc1)N1Cc2cc(-c3ccc(N4CCNCC4)cc3)ccc2C1=O (configuration not stated) | 2550 nM | 2450 nM | – | 9950 nM | 5130 nM | –
Nc1nccc(Nc2ccc(NC(=O)C(c3ccccc3)N3Cc4cc(-c5ccc(N6CCNCC6)cc5)ccc4C3=O)cc2)n1 (configuration not stated) | 970 nM | 690 nM | 1490 nM | 3200 nM | 530 nM | –
Nc1cc(Nc2ccc(NC(=O)C(c3ccccc3)N3Cc4ccccc4C3=O)cc2)ncn1 (configuration not stated) | > 10000 nM | > 10000 nM | > 10000 nM | > 20000 nM | > 20000 nM | –
Nc1nccc(Nc2ccc(NC(=O)C(c3ccccc3)N3Cc4ccc(-c5ccc(N6CCNCC6)cc5)cc4C3=O)cc2)n1 (configuration not stated) | 1280 nM | 1210 nM | 1640 nM | 2930 nM | 4020 nM | –
